Measured values taken from patent US8835378B2, “Multi-domain amphipathic helical peptides and methods of their use” (The United States of America as represented by the …, priority 2004, dated 2014).
“Also recorded” adds a separate entry of the source. Where a SMILES comes first, the peptide text is derived from it. [ ]: non-standard residue; d: D form.

Tests used:
ABCA1 cells [1] = assay: LDH release from ABCA1 cells; assay type: cell-based, human; settings: 40 μg/ml for 18 hours
Experimental: (§1) Cell fixation was performed by a 10 minute treatment with 3% paraformaldehyde in phosphate buffered saline (PBS), followed by three washes with blank media. Lactate dehydrogenase (LDH) release from cells into the media was measured enzymatically (Roche Diagnostics, Indianapolis, Ind.) and expressed, after subtraction of LDH released into blank media, as the percentage of total cell LDH. Total cell LDH was determined after cell solubilization with 1% Triton X-100.
(§2) Incubation of the cells with L-37pA and D-37pA at the maximum concentration and time used for the efflux studies (40 μg/ml for 18 hours) did, however, consistently result in the release of a small amount of LDH from both cell lines (control cells: L-37pA (6.1%±0.2), D-37pA (6.6%±0.1); ABCA1 cells: L-37pA (4.3%±0.04), D-37pA (5.7%±0.1)).

control cells = assay: LDH release from control cells; assay type: cell-based, human; settings: 40 μg/ml for 18 hours
Experimental: as §1, §2

ABCA1 cells [2] = assay: Two-step competitive binding of radiolabled L-37pA to ABCA1 cells; set-up: species or system human; settings: 8 μM, the maximum concentration tested; 4° C.
Experimental: FIGS. 7A-7B are a pair of graphs illustrating the competitive binding of L-37pA peptide to ABCA1 transfected cells and control cells. ABCA1 cells (FIG. 7A) and control cells (FIG. 7B) were incubated for 3 hours at 4° C. with the indicated concentration of the competitor proteins [L-37pA (triangle), D-37pA (open square), apoA-I (closed circle), L2D-37pA (star), and L3D-37pA (open circle)] and were then washed and incubated for 1 hour at 4° C. with 1 μg/ml of radiolabled L-37pA peptide. Results are expressed as the mean of triplicates±1 SD.
The L-37pA peptide was labeled with ^125I using iodine monochloride. Confluent cells grown on 12-well plates were incubated for 3 hours at 4° C. with the indicated concentration of the unlabeled competitor peptide in αMEM media plus 10 mg/ml of BSA (FIG. 7). […] Cells were washed three times, and cell bound counts were determined after solubilization with 0.1 N NaOH.
A two-step sequential competitive binding assay was performed in order to prevent any potentially interfering interaction of the radiolabled peptide with the competitor proteins (Mendez et al., J. Clin. Invest. 94:1698-1705, 1994). The cells were first incubated with the competitor proteins for 3 hours, washed, and then the cell binding of the radiolabled L-37 peptide was measured. […]

Normal skin fibroblasts = assay: Cholesterol efflux from normal skin fibroblasts; assay type: cell-based, human; settings: 10 μg/ml, 18 hour
Experimental: (§3) FIG. 5 is a graph illustrating ABCA1-independent efflux of cholesterol from Tangier disease fibroblasts. Normal skin fibroblasts (open bars) and Tangier disease skin fibroblasts (solid bars) were examined for their ability to efflux cholesterol over an 18 hour period when treated with 10 μg/ml apoA-I (A), 10 μg/ml L-37pA (L), and 10 μg/ml D-37pA (D). Results are expressed as the mean of triplicates±1 SD.
(§4) In order to confirm that the residual lipid efflux from the control cells to L-37pA and D-37pA (see FIG. 1) was not due to a low level of endogenous ABCA1, a Tangier disease fibroblast cell line with a truncated non-functional ABCA1 transporter (Remaley et al., Proc. Natl. Acad. Sci. USA 96:12685-12690, 1999) was evaluated for lipid efflux (FIG. 5). […] Thromb. Vasc. Biol. 17:1813-1821, 1997.

[3] = test system: ABCA1 cells and control cells; assay: Cell morphology by light microscopy during efflux experiments; assay type: cell-based, human
[4] = test system: HeLa cells transfected with only a hygromycin-resistant control plasmid (control cells); assay: Cholesterol and phospholipid efflux from control cells; assay type: cell-based, human; settings: for cholesterol and phospholipid efflux from control cells (in words): 18 hours
Experimental: (§5) Percentage efflux was calculated after subtracting the radioactive counts in the blank media (αMEM plus 1 mg/ml of BSA), and expressed as the percent of total radioactive counts removed from the cells during the efflux period.
as §1

[5] = test system: HeLa cells stably transfected with human ABCA1 cDNA (ABCA1 cells); assay: Cholesterol and phospholipid efflux from ABCA1 transfected cells; assay type: cell-based
Experimental: as §5, §1

[6] = test system: Tangier disease fibroblast cell line with a truncated non-functional ABCA1 transporter; assay: Cholesterol efflux from Tangier disease fibroblasts; assay type: cell-based, human; settings: 10 μg/ml, 18 hour
Experimental: as §3, §4

CC(C)C[C@@H](NC(=O)[C@@H](Cc1c[nH]c2ccccc12)NC(=O)[C@H](N)CC(=O)O)C(=O)N[C@H](CCCCN)C(=O)N[C@H](C)C(=O)N[C@H](Cc1ccccc1)C(=O)N[C@H](Cc1ccc(O)cc1)C(=O)N[C@H](CC(=O)O)C(=O)N[C@H](CCCCN)C(=O)N[C@@H](C(=O)N[C@H](C)C(=O)N[C@H](CCC(=O)O)C(=O)N[C@H](CCCCN)C(=O)N[C@H](CC(C)C)C(=O)N[C@H](CCCCN)C(=O)N[C@H](CCC(=O)O)C(=O)N[C@H](C)C(=O)N[C@H](Cc1ccccc1)C(=O)N1CCC[C@@H]1C(=O)N[C@H](CC(=O)O)C(=O)N[C@H](Cc1c[nH]c2ccccc12)C(=O)N[C@H](CC(C)C)C(=O)N[C@H](CCCCN)C(=O)N[C@H](C)C(=O)N[C@H](Cc1ccccc1)C(=O)N[C@H](Cc1ccc(O)cc1)C(=O)N[C@H](CC(=O)O)C(=O)N[C@H](CCCCN)C(=O)N[C@@H](C(=O)N[C@H](C)C(=O)N[C@H](CCC(=O)O)C(=O)N[C@H](CCCCN)C(=O)N[C@H](CC(C)C)C(=O)N[C@H](CCCCN)C(=O)N[C@H](CCC(=O)O)C(=O)N[C@H](C)C(=O)N[C@H](Cc1ccccc1)C(=O)O)C(C)C)C(C)C [D-37pA] (H-[dD][dW][dL][dK][dA][dF][dY][dD][dK][dV][dA][dE][dK][dL][dK][dE][dA][dF][dP][dD][dW][dL][dK][dA][dF][dY][dD][dK][dV][dA][dE][dK][dL][dK][dE][dA][dF]-OH; N-terminus and C-terminus assumed)
LDH release from ABCA1 cells (percentage of total cell LDH) (ABCA1 cells [1]): 5.7%±0.1 | LDH release from control cells (percentage of total cell LDH) (control cells): 6.6%±0.1

CC(C)C[C@H](NC(=O)[C@H](Cc1c[nH]c2ccccc12)NC(=O)[C@H](CC(=O)O)NC(=O)[C@@H]1CCCN1C(=O)[C@H](Cc1ccccc1)NC(=O)[C@H](C)NC(=O)[C@H](CCC(=O)O)NC(=O)[C@H](CCCCN)NC(=O)[C@H](CC(C)C)NC(=O)[C@H](CCCCN)NC(=O)[C@H](CCC(=O)O)NC(=O)[C@H](C)NC(=O)[C@@H](NC(=O)[C@H](CCCCN)NC(=O)[C@H](CC(=O)O)NC(=O)[C@H](Cc1ccc(O)cc1)NC(=O)[C@H](Cc1ccccc1)NC(=O)[C@H](C)NC(=O)[C@H](CCCCN)NC(=O)[C@H](CC(C)C)NC(=O)[C@H](Cc1c[nH]c2ccccc12)NC(=O)[C@@H](N)CC(=O)O)C(C)C)C(=O)N[C@@H](CCCCN)C(=O)N[C@@H](C)C(=O)N[C@@H](Cc1ccccc1)C(=O)N[C@@H](Cc1ccc(O)cc1)C(=O)N[C@@H](CC(=O)O)C(=O)N[C@@H](CCCCN)C(=O)N[C@H](C(=O)N[C@@H](C)C(=O)N[C@@H](CCC(=O)O)C(=O)N[C@@H](CCCCN)C(=O)N[C@@H](CC(C)C)C(=O)N[C@@H](CCCCN)C(=O)N[C@@H](CCC(=O)O)C(=O)N[C@@H](C)C(=O)N[C@@H](Cc1ccccc1)C(=O)O)C(C)C [L-37pA] (H-DWLKAFYDKVAEKLKEAFPDWLKAFYDKVAEKLKEAF-OH; N-terminus and C-terminus assumed)
LDH release from ABCA1 cells (percentage of total cell LDH) (ABCA1 cells [1]): 4.3%±0.04 | LDH release from control cells (percentage of total cell LDH) (control cells): 6.1%±0.2

apolipoprotein A-I [apoA-I]
binding of labeled L-37pA to ABCA1 cells blocked by competitor (ABCA1 cells [2]): approximately 30% | cholesterol efflux from normal fibroblasts (Normal skin fibroblasts): effluxed cholesterol | effect on cell morphology [3]: no morphologic effect was observed | cholesterol efflux time course from control cells (in words) ([4]; 10 μg/ml, 30 hour efflux period): no significant increase above background | cholesterol and phospholipid efflux from control cells (in words) [4]: do not efflux significant amounts of cholesterol and phospholipid; also recorded: unable | cholesterol and phospholipid efflux from control cells (in words) ([4]; listed as apoA-1): did not cause lipid efflux from control cells | time at which cholesterol efflux from ABCA1 cells was first detectable ([5]; 10 μg/ml): 2 h | effect of fixation of ABCA1 cells on cholesterol efflux (in words) ([5]; 10 μg/ml, 18 hours, fixation with 3% paraformaldehyde): completely blocked | cholesterol and phospholipid efflux from ABCA1 cells (in words) ([5]; 18 hours): do so after transfection with ABCA1 | protein concentration at which lipid efflux began to show saturation ([5]; 18 hours): ~10 µg/mL | molar concentration at which lipid efflux began to show saturation ([5]; corresponds to 10 μg/ml): 0.36 µM | cholesterol efflux from Tangier disease fibroblasts [6]: did not efflux significant amounts of cholesterol
